{"source": "patent US8470763B2", "about": "“Alpha-amino-N-substituted amides, pharmaceutical composition containing them and uses thereof” (Shanghai Institute of Materia Medica Chinese Academy of …, priority 2007, dated 2013)", "data": [{"tested_on": "MDA-MB-435S human breast cancer cells", "assay": "MTT assay, proliferation of MDA-MB-435S cells", "assay_type": "cell-based", "conditions": "Homo sapiens, 72 h, read-out: Cell Survival Rate IC50", "method": "The experiments for evaluating the antineoplasmic activities of the compounds according to the present invention were carried out, and the compounds' antineoplasmic activities in vitro was evaluated by determining the inhibitory activities thereof against the proliferation of MDA-MB-435S human breast cancer cells.\nThe antineoplasmic activities were determined by using the MTT assay, which is based on the metabolic reduction of 3-(4,5-dimethylthylthiazol-2-yl)-2,5-diphenyl tetrazolium bromide (MTT). The dehydrogenases, which are related to NADP (niacinamide adenine dinucleotide phosphate, coenzyme) and present in mitochondrions of living cells, can reduce the yellow MTT to an insoluble, dark purple formazan. […] After the formazan is dissolved in DMSO, the optical density is determined on an ELISA Reader at the wavelength of 550/690 nm.\nThe adhered MDA-MB-4355 cells in logarithmic growth phase, were digested by 0.05% trypsogen, counted and formulated into a cell suspension with a medium. After counted, the suspension was inoculated on a 96-well plate with 3000 cells and 100 μl medium per well. The inoculated 96-well plate was placed overnight in an incubator at 37 with 5% CO2 to allow the cells to adhere to the wall. On the next day, the administration of the drugs started. Before the administration, into some of the control wells, each was added 20 μl of the MTT solution (5 mg/ml) without removing the medium therein. After incubated for 3 h, the absorption at A550/690 was recorded as the initial cell concentration. For the drug wells, each was added into 100 μl of medium containing 2 μl of compound solution. For the control wells which use DMSO as background control, each was also added into 100 μl of medium containing 2 μl of DMSO. In addition, each experiment was carried out with adriamycin as the positive control. Subsequently, the 96-well plate was incubated in an incubator at 37 with 5% CO2 for 72 h. each compound was tested in triplicate wells (6 μl of compound solution was put into a sterilized eppendorf centrifuge tube, then 300 μl of medium was added and mixed well, and the mixture was distributed into 3 wells respectively), and at six concentrations which form a gradient. 3 days (72 h) later, 40 μl of MTT solution (5 mg/ml) was put into each well directly (without sucking off the medium therein), and the plate was incubated in the incubator for 3 h and then taken out. The liquid in each well was sucked off, and then 100 μl of DMSO was put into each well to dissolve the crystal completely with slight shake. The absorbance of the solution in each well was determined at 550/690 nm on an ELISA Reader as the cell density after treated with the compound. The growth inhibition of compound against breast cancer cells MDA-MB-435S was represented by the cell survival rate, and IC50 was determined from the profile of cell survival rate vs compound concentration. The calculating formula was as follows: cell survival rate=[(cells+compound)A550/690/(cells+compound vector DMSO)A550/690]×100%", "units": {"IC50": "µM"}, "values": [{"smiles": "CO[C@@H](C(=O)N[C@@H](Cc1ccccc1)C(=O)NCCO)[C@H](O)[C@@H](O)[C@H](O)/C=C/C(C)(C)C", "note": "[Compound L452]", "IC50": 5.25}, {"smiles": "CO[C@@H](C(=O)N[C@@H](C)C(=O)NCCOC(=O)C1CC1)[C@H](O)[C@@H](O)[C@H](O)/C=C/C(C)(C)C", "note": "[Compound L444g]", "IC50": 6.07}, {"smiles": "C=CCNC(=O)[C@H](C)NC(=O)[C@H](OC)[C@H](O)[C@@H](O)[C@H](O)/C=C/C(C)(C)C", "note": "[Compound L372]", "IC50": 3.53}, {"smiles": "CO[C@@H](C(=O)N[C@@H](C)C(=O)NCC1CC(Cc2ccccc2)C(=O)O1)[C@H](O)[C@@H](O)[C@H](O)/C=C/C(C)(C)C", "note": "(stereo partly drawn) [Compound L521]", "IC50": 25.2}, {"smiles": "CO[C@@H](C(=O)N[C@@H](C)C(=O)NCCOC(=O)CCCCCCCCCN=[N+]=[N-])[C@H](O)[C@@H](O)[C@H](O)/C=C/C(C)(C)C", "note": "[Compound L572]", "IC50": 0.11}, {"smiles": "CO[C@@H](C(=O)N[C@@H](C)C(=O)NCCOCc1ccccc1)[C@H](O)[C@@H](O)[C@H](O)/C=C/C(C)(C)C", "note": "[Compound L466]", "IC50": "~10"}, {"smiles": "CO[C@@H](C(=O)N[C@@H](C)C(=O)NCCNC(=O)C1CCCCC1)[C@H](O)[C@@H](O)[C@H](O)/C=C/C(C)(C)C", "note": "[Compound L485]", "IC50": 3.15}, {"smiles": "CO[C@@H](C(=O)N[C@@H](C)C(=O)NCCOC(=O)[C@H]1CCCO1)[C@H](O)[C@@H](O)[C@H](O)/C=C/C(C)(C)C", "note": "[Compound L474]", "IC50": 8.86}, {"smiles": "CO[C@@H](C(=O)N[C@@H](C)C(=O)NCCOC(=O)C(C)(C)C)[C@H](O)[C@@H](O)[C@H](O)/C=C/C(C)(C)C", "note": "[Compound L460]", "IC50": 3.38}, {"smiles": "CO[C@@H](C(=O)N[C@@H](C)C(=O)NCCOC(=O)c1ccccc1)[C@H](O)[C@@H](O)[C@H](O)/C=C/C(C)(C)C", "note": "[Compound L480]", "IC50": 2.37}, {"smiles": "CO[C@@H](C(=O)N[C@@H](C)C(=O)NCC(C)OC(=O)C1CCCCC1)[C@H](O)[C@@H](O)[C@H](O)/C=C/C(C)(C)C", "note": "(stereo partly drawn) [Compound L500a]", "IC50": 0.8}, {"smiles": "CO[C@@H](C(=O)N[C@@H](C)C(=O)NCCCOC(C)C)[C@H](O)[C@@H](O)[C@H](O)/C=C/C(C)(C)C", "note": "[Compound L432b]", "IC50": 21.6}, {"smiles": "CCC(C)[C@H](NC(=O)[C@H](OC)[C@H](O)[C@@H](O)[C@H](O)/C=C/C(C)(C)C)C(=O)NCCOC(=O)C1CCCCC1", "note": "(stereo partly drawn) [Compound L528a]", "IC50": 3.24}, {"smiles": "CCCC[C@H](NC(=O)[C@H](OC)[C@H](O)[C@@H](O)[C@H](O)/C=C/C(C)(C)C)C(=O)NCCOC(=O)C1CCCCC1", "note": "[Compound L528c]", "IC50": 2.91}, {"smiles": "CO[C@@H](C(=O)N[C@@H](C)C(=O)NCCCOC(=O)C1CCCCC1)[C@H](O)[C@@H](O)[C@H](O)/C=C/C(C)(C)C", "note": "[Compound L500b]", "IC50": 0.14}, {"smiles": "CO[C@@H](C(=O)N[C@@H](Cc1c[nH]c2ccccc12)C(=O)NCCO)[C@H](O)[C@@H](O)[C@H](O)/C=C/C(C)(C)C", "note": "[Compound L491]", "IC50": 5.13}, {"smiles": "CO[C@@H](C(=O)N[C@@H](C)C(=O)NCCCOC1CCCCC1)[C@H](O)[C@@H](O)[C@H](O)/C=C/C(C)(C)C", "note": "[Compound L472]", "IC50": "> 2.5"}, {"smiles": "CO[C@@H](C(=O)N[C@@H](C)C(=O)NCCOC(=O)OCCCc1ccccc1)[C@H](O)[C@@H](O)[C@H](O)/C=C/C(C)(C)C", "note": "[Compound L538b]", "IC50": 0.76}, {"smiles": "C=CCNC(=O)[C@@H](NC(=O)[C@H](OC)[C@H](O)[C@@H](O)[C@H](O)/C=C/C(C)(C)C)C(C)C", "note": "[Compound L400]", "IC50": 9.68}, {"smiles": "CO[C@@H](C(=O)N[C@@H](C)C(=O)NCCOC(C)C)[C@H](O)[C@@H](O)[C@H](O)/C=C/C(C)(C)C", "note": "[Compound L418c]", "IC50": 13.9}, {"smiles": "CO[C@@H](C(=O)N[C@@H](CC(C)C)C(=O)NCCOC(=O)C1CCCCC1)[C@H](O)[C@@H](O)[C@H](O)/C=C/C(C)(C)C", "note": "[Compound L528b]", "IC50": 2.62}, {"smiles": "CO[C@@H](C(=O)N[C@@H](CC(C)C)C(=O)NCCO)[C@H](O)[C@@H](O)[C@H](O)/C=C/C(C)(C)C", "note": "[Compound L418b]", "IC50": 1.5}, {"smiles": "CO[C@@H](C(=O)N[C@@H](C)C(=O)NCCO)[C@H](O)[C@@H](O)[C@H](O)/C=C/C(C)(C)C", "note": "[Compound L376]", "IC50": 5.44}, {"smiles": "CO[C@@H](C(=O)N[C@@H](C)C(=O)NCC(=O)NC1CCCCC1)[C@H](O)[C@@H](O)[C@H](O)/C=C/C(C)(C)C", "note": "[Compound L471]", "IC50": 4.79}, {"smiles": "CO[C@@H](C(=O)N[C@H](C(=O)NCCOC(=O)C1CCCCC1)C(C)C)[C@H](O)[C@@H](O)[C@H](O)/C=C/C(C)(C)C", "note": "[Compound L514c]", "IC50": 2.22}, {"smiles": "CO[C@@H](C(=O)N[C@@H](C)C(=O)NCCOC(=O)C1CCCC1)[C@H](O)[C@@H](O)[C@H](O)/C=C/C(C)(C)C", "note": "[Compound L472-3]", "IC50": 0.72}, {"smiles": "CO[C@@H](C(=O)N[C@@H](C)C(=O)NCC(=O)OC1CCCCC1)[C@H](O)[C@@H](O)[C@H](O)/C=C/C(C)(C)C", "note": "[Compound L472-4]", "IC50": 1.54}, {"smiles": "CCCCC(CC)C(=O)OCCNC(=O)[C@H](C)NC(=O)[C@H](OC)[C@H](O)[C@@H](O)[C@H](O)/C=C/C(C)(C)C", "note": "(stereo partly drawn) [Compound L502]", "IC50": 2.55}, {"smiles": "C=CCNC(=O)[C@H](Cc1cn(COCc2ccccc2)cn1)NC(=O)[C@H](OC)[C@H](O)[C@@H](O)[C@H](O)/C=C/C(C)(C)C", "note": "[Compound L558b]", "IC50": 1.9}, {"smiles": "CO[C@@H](C(=O)N[C@@H](C)C(=O)NCCOC(=O)C(C)C)[C@H](O)[C@@H](O)[C@H](O)/C=C/C(C)(C)C", "note": "[Compound L446a]", "IC50": 7.06}, {"smiles": "C=CCNC(=O)[C@H](CCC(=O)OC(C)(C)C)NC(=O)[C@H](OC)[C@H](O)[C@@H](O)[C@H](O)/C=C/C(C)(C)C", "note": "[Compound L486e]", "IC50": 2.85}, {"smiles": "CO[C@@H](C(=O)N[C@@H](CCCCNC(=O)OC(C)(C)C)C(=O)NCCOC(=O)C1CCCCC1)[C@H](O)[C@@H](O)[C@H](O)/C=C/C(C)(C)C", "note": "[Compound L643]", "IC50": 1.56}, {"smiles": "CO[C@@H](C(=O)N[C@@H](C)C(=O)NCCOC(=O)CC1CCCCC1)[C@H](O)[C@@H](O)[C@H](O)/C=C/C(C)(C)C", "note": "[Compound L500c]", "IC50": 1.93}, {"smiles": "C=CCNC(=O)[C@H](CCSC)NC(=O)[C@H](OC)[C@H](O)[C@@H](O)[C@H](O)/C=C/C(C)(C)C", "note": "[Compound L432]", "IC50": 4.57}, {"smiles": "CO[C@@H](C(=O)N[C@@H](C)C(=O)NCCOCC(C)C)[C@H](O)[C@@H](O)[C@H](O)/C=C/C(C)(C)C", "note": "[Compound L432a]", "IC50": 40}, {"smiles": "CO[C@@H](C(=O)N[C@@H](C)C(=O)NCCCOCC(C)C)[C@H](O)[C@@H](O)[C@H](O)/C=C/C(C)(C)C", "note": "[Compound L446b]", "IC50": 9.56}, {"smiles": "C#CCCCC(=O)OCCNC(=O)[C@H](C)NC(=O)[C@H](OC)[C@H](O)[C@@H](O)[C@H](O)/C=C/C(C)(C)C", "note": "[Compound L471b]", "IC50": 0.11}, {"smiles": "CO[C@@H](C(=O)N[C@@H](C)C(=O)NCCOC(=O)C1CCC1)[C@H](O)[C@@H](O)[C@H](O)/C=C/C(C)(C)C", "note": "[Compound L458]", "IC50": 0.89}]}, {"tested_on": "human breast cancer cells MDA-MB-435 transplanted on nude mice", "assay": "Antineoplasmic activity in vivo, MDA-MB-435 transplanted tumor on nude mice", "conditions": "MMC 5 mg/kg, d1, i.v.; P <0.05", "units": {"T/C (%)": "%"}, "experimental": "Dosage: among 3 groups, the dosages of L538 were set at 5, 10 and 20 mg/kg as the high, middle and low dosages, respectively, administrating intravenously 3 times a week; while MMC was administrated intravenously at the first day whit a dosage of 5 mg/kg.\nAnimals: BALB/CA nude mice, male, 40-45 days old, body weight: 18±1 g, provided by Shanghai Institute of Materia Medica, Chinese Academy of Sciences. […] Animal number in each group: 7 in negative control group, and 4 in administration group.\nThe amount of inoculated cells was 5×10^6. After the transplanted tumor was formed by inoculation, it was used after passed for 3 generations in nude mice.\nExperimental procedure: tumor tissue in productive phase was cut into nubs of about 1.5 mm^3. Under sterile conditions, the nubs were inoculated subcutaneously in right axillary fossa of the nude mice. The diameters of the transplanted tumors on nude mice were measured by a vernier caliper. When the tumors grew up to 100-200 mm^3, the animals were divided randomly into groups. Mice in experimental groups were administered intravenously every other day. […] The total administration duration was 3 weeks. For the positive control, MMC, Mice were administered intravenously once at the first day of a week, and the total administration duration was 3 weeks. Mice in control groups were administrated physiologic saline in equivalent amount. The diameter of the tumor and weight of mice were measured twice a week. The equation for calculating the TV (tumor volume) was as follows: TV=½×a×b^2, • wherein, a is length and b is width. RTV (relative tumor volume) was calculated based on the measured results, and the equation thereof was as follows: RTV=Vt/V0 • wherein, V0 is the tumor volume measured when the mice were grouped (i.e. d0), and Vt is the tumor volume at each measurement. The evaluation index for the antitumor activity was the relative tumor proliferation rateT/C (%).\nThe calculation equation was as follows: T/C(%)=(TRTV/CRTV)×100, • wherein, TRTV is the RTV of therapeutic Group and CRTV is RTV of negative control group.", "values": [{"smiles": "CO[C@@]12[C@H](COC(N)=O)C3=C(C(=O)C(C)=C(N)C3=O)N1C[C@@H]1N[C@@H]12", "note": "[MMC, mitomycin, reference compound]", "T/C (%)": 44.3}]}, {"tested_on": "human breast cancer cells MDA-MB-435 transplanted on nude mice", "assay": "Antineoplasmic activity in vivo, MDA-MB-435 transplanted tumor on nude mice", "conditions": "MMC 5 mg/kg, d1, i.v.; d0 132 ± 52", "units": {"TV (mm^3) d21": "mm^3"}, "values": [{"smiles": "CO[C@@]12[C@H](COC(N)=O)C3=C(C(=O)C(C)=C(N)C3=O)N1C[C@@H]1N[C@@H]12", "note": "[MMC, mitomycin, reference compound]", "TV (mm^3) d21": "844 ± 308"}]}, {"tested_on": "human breast cancer cells MDA-MB-435 transplanted on nude mice", "assay": "Antineoplasmic activity in vivo, MDA-MB-435 transplanted tumor on nude mice", "conditions": "MMC 5 mg/kg, d1, i.v.; d21", "values": [{"smiles": "CO[C@@]12[C@H](COC(N)=O)C3=C(C(=O)C(C)=C(N)C3=O)N1C[C@@H]1N[C@@H]12", "note": "[MMC, mitomycin, reference compound]", "RTV": "6.6 ± 1.6"}]}, {"tested_on": "human breast cancer cells MDA-MB-435 transplanted on nude mice", "assay": "Antineoplasmic activity in vivo, MDA-MB-435 transplanted tumor on nude mice", "conditions": "MMC 5 mg/kg, d1, i.v.; initial 17.8 g", "units": {"Body Weight(g) Ultimate": "g"}, "values": [{"smiles": "CO[C@@]12[C@H](COC(N)=O)C3=C(C(=O)C(C)=C(N)C3=O)N1C[C@@H]1N[C@@H]12", "note": "[MMC, mitomycin, reference compound]", "Body Weight(g) Ultimate": 21.7}]}]}
